The source of these data is US20250081967A1, “PESTICIDALLY ACTIVE HETEROCYCLIC DERIVATIVES WITH SULFOXIMINE CONTAINING SUBSTITUENTS” (SYNGENTA CROP PROTECTION AG, priority 2021, published 2025).

What all share (assay type): in vivo
One data set concerns Euschistus heros. Briefly: Activity against Euschistus heros (neotropical brown stink bug), soybean leaf. The conditions noted are these: 120 h, application rate 200 ppm, N-2 nymphs, 5 days after infestation, read-out: effect in at least one of the two categories (mortality or growth inhibition). Here is the method: Example B7: Activity Against Euschistus heros (Neotropical Brown Stink Bug)
Soybean leaf on agar in 24-well microtiter plates were sprayed with aqueous test solutions prepared from 10′000 ppm DMSO stock solutions. After drying the leaf were infested with N-2 nymphs. The samples were assessed for mortality and growth inhibition in comparison to untreated samples 5 days after infestation.

The next data set deals with Bemisia tabaci. Briefly: Activity against Bemisia tabaci (cotton white fly), cotton leaf discs. The settings on record: foliar, 144 h, application rate 200 ppm, adult white flies, 6 days after incubation. Here is the method:
Example B6: Activity Against Bemisia tabaci (Cotton White Fly)
Cotton leaf discs were placed on agar in 24-well microtiter plates and sprayed with aqueous test solutions prepared from 10′000 ppm DMSO stock solutions. After drying the leaf discs were infested with adult white flies. The samples were checked for mortality 6 days after incubation.

The test system of the next data set is Spodoptera littoralis. Put plainly: Activity against Spodoptera littoralis (Egyptian cotton leaf worm), cotton leaf discs. The settings on record: foliar, 72 h, application rate 200 ppm, L1 larvae, 3 days after infestation, read-out: control (mortality, anti-feeding effect or growth inhibition). A digest of the protocol: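 Cotton leaf discs on agar sprayed with aqueous test solutions made from 10′000 ppm DMSO stocks, dried, then infested with five L1 larvae. Mortality, anti-feeding and growth inhibition scored versus untreated samples 3 days after infestation; control given when any category exceeds untreated.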

Data set [1] has as its system Myzus persicae. Put plainly: Activity against Myzus persicae (green peach aphid), systemic activity, pea seedlings. The conditions noted are these: Myzus persicae, 144 h, test rate 24 ppm; systemic; 6 days after placing seedlings in test solutions. The protocol: Example B5: Activity Against Myzus persicae (Green Peach Aphid) Systemic Activity
Roots of pea seedlings infested with an aphid population of mixed ages were placed directly in the aqueous test solutions prepared from 10′000 DMSO stock solutions. The samples were assessed for mortality 6 days after placing seedlings in test solutions.

For a further data set, the system named is Plutella xylostella. Put plainly: Activity against Plutella xylostella (diamond back moth), artificial diet, L2 larvae. The conditions noted are these: 120 h, application rate 200 ppm, 5 days after infestation, read-out: effect in at least one of the two categories (mortality or growth inhibition). Here is the method: Example B2: Activity Against Plutella xylostella (Diamond Back Moth)
24-well microtiter plates with artificial diet were treated with aqueous test solutions prepared from 10′000 ppm DMSO stock solutions by pipetting. After drying, the plates were infested with L2 larvae (10 to 15 per well). The samples were assessed for mortality and growth inhibition in comparison to untreated samples 5 days after infestation.

Another data set relates to Diabrotica balteata. Briefly: Activity against Diabrotica balteata (corn root worm), maize sprouts. The conditions noted are these: for percent effect (mortality or growth inhibition) at 200 ppm: 96 h, application rate 200 ppm, L2 larvae, 4 days after infestation, read-out: effect in at least one of the two categories (mortality or growth inhibition). Here is the method: Example B3: Activity Against Diabrotica Balteata (Corn Root Worm)
Maize sprouts placed onto an agar layer in 24-well microtiter plates were treated with aqueous test solutions prepared from 10′000 ppm DMSO stock solutions by spraying. After drying, the plates were infested with L2 larvae (6 to 10 per well). The samples were assessed for mortality and growth inhibition in comparison to untreated samples 4 days after infestation.

Data set [2] has as its system Myzus persicae. Put plainly: Activity against Myzus persicae (green peach aphid), feeding/contact activity, sunflower leaf discs. The conditions noted are these: Myzus persicae, foliar, 144 h, application rate 200 ppm; feeding/contact; 6 days after infestation. The protocol:
Example B4: Activity Against Myzus persicae (Green Peach Aphid) Feeding/Contact Activity
Sunflower leaf discs were placed on agar in a 24-well microtiter plate and sprayed with aqueous test solutions prepared from 10′000 ppm DMSO stock solutions. After drying, the leaf discs were infested with an aphid population of mixed ages. The samples were assessed for mortality 6 days after infestation.

The test system of another data set is Chilo suppressalis. Briefly: Activity against Chilo suppressalis (striped rice stemborer), artificial diet. The settings on record: 144 h, application rate 200 ppm, L2 larvae, 6 days after infestation. The protocol:
Example B11: Activity Against Chilo suppressalis (Striped Rice Stemborer)
24-well microtiter plates with artificial diet were treated with aqueous test solutions prepared from 10′000 ppm DMSO stock solutions by pipetting. After drying, the plates were infested with L2 larvae (6-8 per well). The samples were assessed for mortality, anti-feeding effect, and growth inhibition in comparison to untreated samples 6 days after infestation. Control of Chilo suppressalis by a test sample is given when at least one of the categories mortality, anti-feedant effect, and growth inhibition is higher than the untreated sample.

Turning to `CCS(=N)(=O)c1cc(OC(C)(C)C#N)c(C)nc1-c1nc2cc(C(F)(F)F)cnc2n1C` (racemic) [Compound P5, 2-[[5-(ethylsulfonimidoyl)-2-methyl-6-[3-methyl-6-(trifluoromethyl)imidazo[4,5-b]pyridin-2-yl]-3-pyridyl]oxy]-2-methyl-propanenitrile], the percent effect (mortality or growth inhibition) at 200 ppm in the data set with Euschistus heros, with Plutella xylostella and with Diabrotica balteata was not below 80% throughout. Also, the mortality at 200 ppm in the data set on Bemisia tabaci and in the data set on Myzus persicae [2] was not below 80% each time. In addition, the percent control (mortality, anti-feedant effect or growth inhibition) at 200 ppm in the data set on Spodoptera littoralis is not below 80%. Also, the mortality (usually the percentage killed) at 24 ppm in the data set with Myzus persicae [1] was not below 80%.

Take `CCS(=N)(=O)c1cc(C2(C#N)CC2)ccc1-c1nc2cc(C(F)(F)F)cnc2n1C` (racemic) [Compound P6, 1-[3-(ethylsulfonimidoyl)-4-[3-methyl-6-(trifluoromethyl)imidazo[4,5-b]pyridin-2-yl]phenyl]cyclopropanecarbonitrile]: the percent effect (mortality or growth inhibition) at 200 ppm in the data set with Euschistus heros and with Plutella xylostella was not below 80% throughout. In addition, the mortality at 200 ppm in the data set on Bemisia tabaci and in the data set with Myzus persicae [2] was not below 80% each time. Also, the percent control (mortality, anti-feedant effect or growth inhibition) at 200 ppm in the data set on Spodoptera littoralis is not below 80%. In the data set with Myzus persicae [1], this compound gave a mortality at 24 ppm not below 80%.

With `CCS(=N)(=O)c1cc(C2(C#N)CC2)cnc1-c1nc2cc(C(F)(F)F)n(OC)c(=O)c2n1C` (racemic) [Compound P8, 1-[5-(ethylsulfonimidoyl)-6-[5-methoxy-3-methyl-4-oxo-6-(trifluoromethyl)imidazo[4,5-c]pyridin-2-yl]-3-pyridyl]cyclopropanecarbonitrile], the percent effect (mortality or growth inhibition) at 200 ppm in the data set on Euschistus heros, with Plutella xylostella and in the data set with Diabrotica balteata was not below 80% in each case. Besides, the mortality at 200 ppm with Bemisia tabaci and with Myzus persicae [2] was not below 80% in each case. Further, the percent control (mortality, anti-feedant effect or growth inhibition) at 200 ppm in the data set on Spodoptera littoralis is not below 80%. In the data set on Myzus persicae [1], this compound registered a mortality at 24 ppm not below 80%.

In the case of `CCS(=N)(=O)c1cc(OC(C)(C)C#N)cnc1-c1nc2cc(C(F)(F)F)cnc2n1C` (racemic) [Compound P9, 2-[[5-(ethylsulfonimidoyl)-6-[3-methyl-6-(trifluoromethyl)imidazo[4,5-b]pyridin-2-yl]-3-pyridyl]oxy]-2-methyl-propanenitrile], the percent effect (mortality or growth inhibition) at 200 ppm with Euschistus heros, with Plutella xylostella and in the data set on Diabrotica balteata was not below 80% in each case. The mortality at 200 ppm with Bemisia tabaci and in the data set on Myzus persicae [2] was not below 80% each time. Also, the percent control (mortality, anti-feedant effect or growth inhibition) at 200 ppm with Spodoptera littoralis was not below 80%. Further, in the data set on Myzus persicae [1], the mortality at 24 ppm was not below 80%.

Consider `CCS(=N)(=O)c1cc(OC(C)(C)C#N)cnc1-c1cn2cnc(C(F)(F)F)cc2n1` (racemic) [Compound P11, 2-[[5-(ethylsulfonimidoyl)-6-[7-(trifluoromethyl)imidazo[1,2-c]pyrimidin-2-yl]-3-pyridyl]oxy]-2-methyl-propanenitrile], for which the mortality at 200 ppm in the data set with Bemisia tabaci and with Myzus persicae [2] was not below 80% throughout. In addition, in the data set on Spodoptera littoralis, the percent control (mortality, anti-feedant effect or growth inhibition) at 200 ppm was not below 80%. The mortality at 24 ppm with Myzus persicae [1] was not below 80%. The percent effect (mortality or growth inhibition) at 200 ppm in the data set with Plutella xylostella and with Diabrotica balteata was not below 80% each time.

In the case of `CCS(=N)(=O)c1cc(C(C)(C)C#N)cnc1-c1nc2cc(C(F)(F)F)cnc2n1C` (racemic) [Compound P12, 2-[5-(ethylsulfonimidoyl)-6-[3-methyl-6-(trifluoromethyl)imidazo[4,5-b]pyridin-2-yl]-3-pyridyl]-2-methyl-propanenitrile], the mortality at 200 ppm in the data set on Bemisia tabaci and in the data set with Myzus persicae [2] was not below 80% throughout. Also, the percent control (mortality, anti-feedant effect or growth inhibition) at 200 ppm in the data set with Spodoptera littoralis was not below 80%. In the data set on Myzus persicae [1], the mortality at 24 ppm is not below 80%. The percent effect (mortality or growth inhibition) at 200 ppm in the data set on Plutella xylostella and with Diabrotica balteata was not below 80% throughout.

Regarding `CCn1c(C(F)(F)F)cc2nc(-c3ncc(C4(C#N)CC4)cc3S(=N)(=O)CC)n(C)c2c1=O` (racemic) [Compound P14, 1-[6-[5-ethyl-3-methyl-4-oxo-6-(trifluoromethyl)imidazo[4,5-c]pyridin-2-yl]-5-(ethylsulfonimidoyl)-3-pyridyl]cyclopropanecarbonitrile], the percent effect (mortality or growth inhibition) at 200 ppm in the data set with Euschistus heros, in the data set on Plutella xylostella and with Diabrotica balteata was not below 80% in each case. Moreover, the mortality at 200 ppm in the data set on Bemisia tabaci and with Myzus persicae [2] was not below 80% throughout. Also, in the data set on Spodoptera littoralis, the percent control (mortality, anti-feedant effect or growth inhibition) at 200 ppm is not below 80%. In addition, the mortality at 24 ppm in the data set with Myzus persicae [1] is not below 80%.

Regarding `CCS(=N)(=O)c1cc(OC(C)(C)C#N)cnc1-c1nc2cc(C(F)(F)F)nnc2n1C` (racemic) [Compound P15, 2-[[5-(ethylsulfonimidoyl)-6-[7-methyl-3-(trifluoromethyl)imidazo[4,5-c]pyridazin-6-yl]-3-pyridyl]oxy]-2-methyl-propanenitrile], the percent effect (mortality or growth inhibition) at 200 ppm in the data set on Euschistus heros, in the data set with Plutella xylostella and with Diabrotica balteata was not below 80% in each case. Also, the mortality at 200 ppm in the data set with Bemisia tabaci and in the data set with Myzus persicae [2] was not below 80% each time. The same compound showed a mortality at 24 ppm in the data set on Myzus persicae [1] not below 80%.

Take `CCn1c(C(F)(F)F)cc2nc(-c3ncc(OC(C)(C)C#N)cc3S(=N)(=O)CC)n(C)c2c1=O` (racemic) [Compound P19, 2-[[6-[5-ethyl-3-methyl-4-oxo-6-(trifluoromethyl)imidazo[4,5-c]pyridin-2-yl]-5-(ethylsulfonimidoyl)-3-pyridyl]oxy]-2-methyl-propanenitrile]: the percent effect (mortality or growth inhibition) at 200 ppm with Euschistus heros, with Plutella xylostella and in the data set with Diabrotica balteata was not below 80% each time. The mortality at 200 ppm in the data set on Bemisia tabaci and in the data set with Myzus persicae [2] was not below 80% throughout. Also, the percent control (mortality, anti-feedant effect or growth inhibition) at 200 ppm in the data set on Spodoptera littoralis was not below 80%. The mortality at 24 ppm with Myzus persicae [1] is not below 80%.

With `CCS(=N)(=O)c1cc(C(C)(C)C#N)cnc1-c1nc2cc(C(F)(F)F)cnc2n1C` (single isomer, unassigned) [Compound P12-B, 2-[5-(ethylsulfonimidoyl)-6-[3-methyl-6-(trifluoromethyl)imidazo[4,5-b]pyridin-2-yl]-3-pyridyl]-2-methyl-propanenitrile], in the data set on Chilo suppressalis, the percent control (mortality, anti-feedant effect or growth inhibition) at 200 ppm is not below 80%.

Compound `CCn1c(C(F)(F)F)cc2nc(-c3ncc(C4(C#N)CC4)cc3S(=N)(=O)CC)n(C)c2c1=O` (single isomer, unassigned) [Compound P14-B, 1-[6-[5-ethyl-3-methyl-4-oxo-6-(trifluoromethyl)imidazo[4,5-c]pyridin-2-yl]-5-(ethylsulfonimidoyl)-3-pyridyl]cyclopropanecarbonitrile] displayed a percent control (mortality, anti-feedant effect or growth inhibition) at 200 ppm with Chilo suppressalis not below 80%. In addition, the “Mortality (%)” value in the data set with Diabrotica balteata (concentration 50 ppm) is 50%.
